System: NOMO1
Experiment: cell viability relative to DMSO control; higher = less cytotoxic
Conditions: 48 h
How it was run: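 Before seeding, each leukemia line was adapted for at least four passages in each medium. NOMO1 or SEM cells (500 cells/well) and P12-Ichikawa cells (1000 cells/well) went into 1536-well plates at 5 μl, then received library compounds in DMSO by pin dosing across 11 threefold concentrations, 47 μM to 0.79 nM. Readout was CellTiter-Glo One luminescence after 48 h at 37°C, and viability is given as a per-plate percentage of DMSO wells, with cell-free wells as background.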

[1] = RPMI 5 mM glucose + 10% dialyzed FBS, 0.000781 µM
[2] = RPMI 5 mM glucose + 10% dialyzed FBS, 0.00234 µM
[3] = RPMI 5 mM glucose + 10% dialyzed FBS, 0.00702 µM
[4] = RPMI 5 mM glucose + 10% dialyzed FBS, 0.0211 µM
[5] = RPMI 5 mM glucose + 10% dialyzed FBS, 0.0632 µM
[6] = RPMI 5 mM glucose + 10% dialyzed FBS, 0.19 µM
[7] = RPMI 5 mM glucose + 10% dialyzed FBS, 0.569 µM
[8] = RPMI 5 mM glucose + 10% dialyzed FBS, 1.71 µM
[9] = RPMI 5 mM glucose + 10% dialyzed FBS, 5.12 µM
[10] = RPMI 5 mM glucose + 10% dialyzed FBS, 15.4 µM
[11] = RPMI 5 mM glucose + 10% dialyzed FBS, 46.1 µM

Question: Which results are given for `CCCCc1ccc(N[S+](=O)([O-])c2ccc(C)c(C(=O)N3CCN(c4cccc(C)c4C)CC3)c2)cc1`?
Answer: cell viability [1]: 125%; cell viability [2]: 128%; cell viability [3]: 120%; cell viability [4]: 126%; cell viability [5]: 126%; cell viability [6]: 130%; cell viability [7]: 130%; cell viability [8]: 119%; cell viability [9]: 131%; cell viability [10]: 126%; cell viability [11]: 108%

Question: With `COc1ccc2c(c1)CC[C@@H](CN(C)CC(=O)O)[C@H]2c1ccccc1` as the compound, how does the cell viability [1] read?
Answer: 120%

Question: And the cell viability [2]?
Answer: 125%

Question: And the cell viability [3]?
Answer: 125%

Question: What about the cell viability [4] of the same compound?
Answer: 101%

Question: And the cell viability [5]?
Answer: 127%

Question: And the cell viability [6]?
Answer: 130%

Question: What about the cell viability [7] of the same compound?
Answer: 125%

Question: And the cell viability [8]?
Answer: 123%

Question: What about the cell viability [9] of the same compound?
Answer: 85.2%

Question: What about the cell viability [10] of the same compound?
Answer: 29.8%

Question: What about the cell viability [11] of the same compound?
Answer: 36.6%

Question: Which results are given for `CCCC[N+]1(C)[C@@H]2CC(OC(=O)[C@H](CO)c3ccccc3)C[C@H]1[C@@H]1O[C@@H]12` (some centres undefined)?
Answer: cell viability (RPMI 5 mM glucose + 10% FBS, 0.000781 µM): 106%; cell viability (RPMI 5 mM glucose + 10% FBS, 0.00234 µM): 107%; cell viability (RPMI 5 mM glucose + 10% FBS, 0.00702 µM): 118%; cell viability (RPMI 5 mM glucose + 10% FBS, 0.0211 µM): 120%; cell viability (RPMI 5 mM glucose + 10% FBS, 0.0632 µM): 125%; cell viability (RPMI 5 mM glucose + 10% FBS, 0.19 µM): 102%; cell viability (RPMI 5 mM glucose + 10% FBS, 0.569 µM): 114%; cell viability (RPMI 5 mM glucose + 10% FBS, 1.71 µM): 97.9%; cell viability (RPMI 5 mM glucose + 10% FBS, 5.12 µM): 93.6%; cell viability (RPMI 5 mM glucose + 10% FBS, 15.4 µM): 77.7%; cell viability (RPMI 5 mM glucose + 10% FBS, 46.1 µM): 15.6%; cell viability [1]: 120%; cell viability [2]: 124%; cell viability [3]: 136%; cell viability [4]: 127%; cell viability [5]: 129%; cell viability [6]: 118%; cell viability [7]: 121%; cell viability [8]: 122%; cell viability [9]: 117%; cell viability [10]: 105%; cell viability [11]: 22.7%

Reference: the supplement of paper PMC11451515
